# Molecular target: T1, CCR3 receptor (UniProt P51677)
# T1 sequence (P51677 1-355): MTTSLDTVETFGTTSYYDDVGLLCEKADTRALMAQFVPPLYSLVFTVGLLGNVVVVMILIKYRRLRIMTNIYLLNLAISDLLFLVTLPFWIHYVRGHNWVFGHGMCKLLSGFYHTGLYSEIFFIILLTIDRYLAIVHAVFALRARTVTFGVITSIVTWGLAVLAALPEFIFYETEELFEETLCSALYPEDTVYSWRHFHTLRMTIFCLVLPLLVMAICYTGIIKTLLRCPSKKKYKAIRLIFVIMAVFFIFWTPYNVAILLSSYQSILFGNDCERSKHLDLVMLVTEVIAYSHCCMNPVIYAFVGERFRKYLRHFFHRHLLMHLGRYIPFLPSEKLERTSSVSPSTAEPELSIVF
# Test: CCR3 Receptor Binding Assay ([125I]-labeled human eotaxin/CCL11 displacement on cells)
# Protocol: Cells were washed once with PBS and resuspended in a binding buffer (25 mM HEPES pH 7.6, 5 mM MgCl2, 1 mM CaCl2, 0.5% BSA, 0.1% NaN3), […] of cell suspension (2×10^5 cells/well) and 0.1 nM [^125I]-labeled human eotaxin/CCL11 (2000 Ci/mmol specific activity) were mixed in a 96-well U-bottom polypropylene plate, and incubated for 60 min at room temperature for the binding reaction. The cell suspension was then transferred to a filtration plate (#MAFB, Millipore), and washed 3 times with the binding buffer containing 0.5 M NaCl, scintillant added, and the radioactivity was counted on a TopCount (Packard). For the determination of non-specific binding, the cell suspension and [^125I]-labeled human eotaxin/CCL11 were incubated in the presence of 500 nM of unlabeled human eotaxin/CCL11. See, lino et al., “Molecular cloning and functional characterization of cynomolgus monkey (Macaca fascicularis) CC chemokine receptor, CCR3,” Cytokine 2002, 19, 276-286.
# [1] = Free (free form of the compound)
# [2] = HCl: hydrochloric acid salt of the corresponding compound
SMILES,Ki [1],Ki [2],also measured
"CN1CCN(S(=O)(=O)c2cc([N+](=O)[O-])ccc2Sc2cc(Cl)ccc2Cl)CC1 [Compound 133, 1-(2-(2,5-Dichlorophenylthio)-5-nitrophenylsulfonyl)-4-methylpiperazine]",> 5 nM,,
"N#Cc1ccc(Oc2cc(F)ccc2F)c(S(=O)(=O)N2CCC(N3CCCC3)CC2)c1 [Compound 60, 4-(2,5-Difluorophenoxy)-3-(4-(pyrrolidin-1-yl)piperidin-1-ylsulfonyl)benzonitrile]",> 5 nM,> 5 nM,
"Cc1ccc(C)c(Sc2ccc(C#N)cc2S(=O)(=O)N2CCSCC2)c1 [Compound 85, 4-(2,5-Dimethylphenylthio)-3-(thiomorpholinosulfonyl)benzonitrile]",> 5 nM,,
Cc1ccc(C)c(Sc2ccc(C#N)cc2S(=O)(=O)N2CCS(=O)(=O)CC2)c1 [Compound 140],> 5 nM,,
"CN(C)C1CCN(S(=O)(=O)c2cc(C#N)ccc2Sc2cc(Cl)ccc2Cl)CC1 [Compound 83, 4-(2,5-Dichlorophenylthio)-3-(4-(dimethylamino)piperidin-1-ylsulfonyl)benzonitrile]",25 to 100 nM,≤ 10 nM,
"Cc1ccc(C)c(Oc2ccc([N+](=O)[O-])cc2S(=O)(=O)N2CCN(C(C)C)CC2)c1 [Compound 109, 1-(2-(2,5-Dimethylphenoxy)-5-nitrophenylsulfonyl)-4-isopropylpiperazine]",> 5 nM,,
"Cc1ccc(C)c(Sc2ccc([N+](=O)[O-])cc2S(=O)(=O)N2CCC(N3CCCC3)CC2)c1 [Compound 75, 1-(2-(2,5-Dimethylphenylthio)-5-nitrophenylsulfonyl)-4-(pyrrolidin-1-yl)piperidine]",,≤ 10 nM,
"N#Cc1ccc(Oc2cc(F)ccc2F)c(S(=O)(=O)NCCN2CCCCC2)c1 [Compound 64, 5-Cyano-2-(2,5-difluorophenoxy)-N-(2-(piperidin-1-yl)ethyl)benzenesulfonamide]",> 5 nM,> 5 nM,
"N#Cc1ccc(Oc2cc(Cl)ccc2Cl)c(S(=O)(=O)N2CCN(C3CCCCCC3)CC2)c1 [Compound 91, 3-(4-Cycloheptylpiperazin-1-ylsulfonyl)-4-(2,5-dichlorophenoxy)benzonitrile]",10 to 25 nM,,
"O=C1CN(S(=O)(=O)c2cc([N+](=O)[O-])ccc2Oc2cc(Cl)ccc2Cl)CCN1 [Compound 126, 4-(2-(2,5-Dichlorophenoxy)-5-nitrophenylsulfonyl)piperazin-2-one]",10 to 25 nM,,
"CC(C)N1CCN(S(=O)(=O)c2cc([N+](=O)[O-])ccc2Sc2cc(Cl)ccc2Cl)CC1 [Compound 108, 1-(2-(2,5-Dichlorophenylthio)-5-nitrophenylsulfonyl)-4-isopropylpiperazine]",≤ 10 nM,,
"CCCCc1nc(Cl)c2n1C(=O)N(C1CCN(S(=O)(=O)c3cc(C#N)ccc3Oc3cc(Cl)ccc3Cl)CC1)C2 [Compound 93, 3-(4-(5-Butyl-7-chloro-3-oxo-1H-imidazo[1,5-c]imidazol-2(3H)-yl)piperidin-1-ylsulfonyl)-4-(2,5-dichlorophenoxy)benzonitrile]",> 5 nM,,
"CN1CCCN(S(=O)(=O)c2cc(C#N)ccc2Oc2cc(F)ccc2F)CC1 [Compound 57, 4-(2,5-Difluorophenoxy)-3-(4-methyl-1,4-diazepan-1-ylsulfonyl)benzonitrile]",,> 5 nM,
"CCN1CCN(S(=O)(=O)c2cc([N+](=O)[O-])ccc2Oc2cc(Cl)ccc2Cl)CC1 [Compound 100, 1-(2-(2,5-Dichlorophenoxy)-5-nitrophenylsulfonyl)-4-ethylpiperazine]",≤ 10 nM,,
"Cc1ccc(C)c(Sc2ccc(C#N)cc2S(=O)(=O)N2CCCN(C)CC2)c1 [Compound 70, 4-(2,5-Dimethylphenylthio)-3-(4-methyl-1,4-diazepan-1-ylsulfonyl)benzonitrile]",100 to 500 nM,,
"CCN1CCN(S(=O)(=O)c2cc([N+](=O)[O-])ccc2Sc2cc(C)ccc2C)CC1 [Compound 101, 1-(2-(2,5-Dimethylphenylthio)-5-nitrophenylsulfonyl)-4-ethylpiperazine]",> 5 nM,,
"CC1CN(S(=O)(=O)c2cc(C#N)ccc2Sc2cc(Cl)ccc2Cl)CC(C)N1 (stereo not drawn) [Compound 79, 4-(2,5-Dichlorophenylthio)-3-(3,5-dimethylpiperazin-1-ylsulfonyl)benzonitrile]",≤ 10 nM,≤ 10 nM,
"N#Cc1ccc(Sc2cc(Cl)ccc2Cl)c(S(=O)(=O)N2CCN(C3CCCC3)CC2)c1 [Compound 80, 3-(4-Cyclopentylpiperazin-1-ylsulfonyl)-4-(2,5-dichlorophenylthio)-benzonitrile]",≤ 10 nM,≤ 10 nM,Ki ((CO2H)2 salt): 25 to 100 nM; Ki (EtSO3H salt): ≤ 10 nM; Ki (H2SO4 salt): ≤ 10 nM; Ki (HNO3 salt): 25 to 100 nM; Ki (MeSO3H salt): ≤ 10 nM

SMILES,Ki [1],Ki [2],also measured
"Cc1ccc(C)c(Oc2ccc([N+](=O)[O-])cc2S(=O)(=O)N2CC(C)NC(C)C2)c1 (stereo not drawn) [Compound 106, 1-(2-(2,5-Dimethylphenoxy)-5-nitrophenylsulfonyl)-3,5-dimethylpiperazine]",> 5 nM,,
CCN1CCN(S(=O)(=O)c2cc([N+](=O)[O-])ccc2Sc2cc(Cl)ccc2Cl)CC1 [Compound 99],10 to 25 nM,,
"CC1CN(S(=O)(=O)c2cc([N+](=O)[O-])ccc2Sc2cc(Cl)ccc2Cl)CC(C)N1 (stereo not drawn) [Compound 103, 1-(2-(2,5-Dichlorophenylthio)-5-nitrophenylsulfonyl)-3,5-dimethylpiperazine]",> 5 nM,,
"CN1CCCN(S(=O)(=O)c2cc(C#N)ccc2Sc2cc(Cl)ccc2Cl)CC1 [Compound 81, 4-(2,5-Dichlorophenylthio)-3-(4-methyl-1,4-diazepan-1-ylsulfonyl)-benzonitrile]",≤ 10 nM,10 to 25 nM,
"Cc1ccc(C)c(Sc2ccc(C#N)cc2S(=O)(=O)N2CCN(C(C)C)CC2)c1 [Compound 67, 4-(2,5-Dimethylphenylthio)-3-(4-isopropylpiperazin-1-ylsulfonyl)benzonitrile]",25 to 100 nM,100 to 500 nM,
"CC(C)N1CCN(S(=O)(=O)c2cc([N+](=O)[O-])ccc2Oc2cc(Cl)ccc2Cl)CC1 [Compound 107, 1-(2-(2,5-Dichlorophenoxy)-5-nitrophenylsulfonyl)-4-isopropylpiperazine]",≤ 10 nM,,
"Cc1ccc(C)c(Sc2ccc(C#N)cc2S(=O)(=O)N2CC(C)NC(C)C2)c1 (stereo not drawn) [Compound 66, 4-(2,5-Dimethylphenylthio)-3-(3,5-dimethylpiperazin-1-ylsulfonyl)-benzonitrile]",≤ 10 nM,,
"Cc1ccc(C)c(Sc2ccc(C#N)cc2S(=O)(=O)N2CCC(N(C)C)CC2)c1 [Compound 72, 3-(4-(Dimethylamino)piperidin-1-ylsulfonyl)-4-(2,5-dimethylphenylthio)-benzonitrile]",> 5 nM,25 to 100 nM,
"CCC(CC)N1CCN(S(=O)(=O)c2cc(C#N)ccc2Sc2cc(C)ccc2C)CC1 [Compound 68, 4-(2,5-Dimethylphenylthio)-3-(4-(pentan-3-yl)piperazin-1-ylsulfonyl)benzonitrile]",25 to 100 nM,25 to 100 nM,
"O=[N+]([O-])c1ccc(Sc2cc(Cl)ccc2Cl)c(S(=O)(=O)N2CCCNCC2)c1 [Compound 127, 1-(2-(2,5-Dichlorophenylthio)-5-nitrophenylsulfonyl)-1,4-diazepane]",> 5 nM,,
"Cc1ccc(C)c(Sc2ccc(C#N)cc2S(=O)(=O)N2CCOCC2)c1 [Compound 71, 4-(2,5-Dimethylphenylthio)-3-(morpholinosulfonyl)benzonitrile]",> 5 nM,,
"Cc1ccc(C)c(Sc2ccc([N+](=O)[O-])cc2S(=O)(=O)N2CC(C)NC(C)C2)c1 (stereo not drawn) [Compound 105, 1-(2-(2,5-Dimethylphenylthio)-5-nitrophenylsulfonyl)-3,5-dimethylpiperazine]",> 5 nM,,
"Cc1ccc(C)c(Oc2ccc([N+](=O)[O-])cc2S(=O)(=O)N2CCNCC2)c1 [Compound 148, 1-(2-(2,5-Dimethylphenoxy)-5-nitrophenylsulfonyl)piperazine]",,> 5 nM,
"CC(C)N1CCN(S(=O)(=O)c2cc(C#N)ccc2Oc2cc(F)ccc2F)CC1 [Compound 54, 4-(2,5-Difluorophenoxy)-3-(4-isopropylpiperazin-1-ylsulfonyl)benzonitrile]",100 to 500 nM,25 to 100 nM,
"CN(C)C1CCN(S(=O)(=O)c2cc(C#N)ccc2Oc2cc(F)ccc2F)CC1 [Compound 59, 4-(2,5-Difluorophenoxy)-3-(4-(dimethylamino)piperidin-1-ylsulfonyl)benzonitrile]",> 5 nM,> 5 nM,
"O=[N+]([O-])c1ccc(Sc2cc(Cl)ccc2Cl)c(S(=O)(=O)N2CCN(C3CCCCC3)CC2)c1 [Compound 118, 1-Cyclohexyl-4-(2-(2,5-dichlorophenylthio)-5-nitrophenylsulfonyl)piperazine]",10 to 25 nM,,
"CCC(CC)N1CCN(S(=O)(=O)c2cc(C#N)ccc2Oc2cc(Cl)ccc2Cl)CC1 [Compound 89, 4-(2,5-Dichlorophenoxy)-3-(4-(pentan-3-yl)piperazin-1-ylsulfonyl)-benzonitrile]",10 to 25 nM,,

# Reference: patent US8669247B2, “2,5-disubstituted arylsulfonamide CCR3 antagonists” (Axikin Pharmaceuticals, Inc., priority 2009, dated 2014)
